In test [1] the test system is mouse's leaching cell solution (abdominal cavity cells). The test can be described thus: Drug depressing effect on histamine leaching when treated with 48/80 compound. Particulars: testing drug 100(mg/ml); for inhibition at 100000 µg/mL: Mus musculus, read-out: Depression rate (%); for inhibition at 100000 µg/mL / Depression rate (%): 48/80 compound-induced histamine release; for Histamine Releasing rate (%): 48/80 compound, control 90.5, blank 9.0. It counts as cell-based. The procedure:
This is a comparative testing of drug depressing effect on the amount of leaching histamines when is treated with 48/80 (Sigma, St. MO, USA) compound.
(1). Preparation of leaching cell solution from mouse body.
A mouse is killed and bloodletting. Then 10 ml of Locke's solution containing 0.1% bovine serum protein is injected into its abdominal cavity. After abdominal cavity being light massaged, the cavity is cut and the Locke's solution is removed. Cavity is washed with another 5 ml of Locke's solution, and this washed solution is added to the late one. This combined solution is centrifuged at 600 rpm for 5 minutes. The sediments are washed with 5 ml of cool Locke's solution. Adding 3 ml of cold Locke's solution to the washed sediments, then a leached cell solution of abdominal cavity is obtained. The composition of Locke's solution is: NaCL […], KCL 0.2%, CaCL2 0.15%, glucose 1.0%, in w/v, and the rest distillated water.
(2). Drug depressing effect on the amount of leaching histamines when treated with 48/80 compound.
Each testing compound listed in the table 1 is dissolved in a Ringer's solution containing 1% NaHCO3, and then diluted with Locke's solution to the indicated concentration. 1.0 ml of each of those solutions in last term is mixed with 0.3 ml of mouse's leaching cell solution and 0.5 ml of Locke's solution. This mixture is cultivated at 37° C. for 5 minutes. Then adding 0.2 ml of Locke's solution of 48/80 compound (1 mg/100 ml) and cultivated at 37° C. for 10 minutes. Then the reaction is stopped by cooling, and centrifuged at 2,500 rpm for 10 minutes. 1.7 ml of decanted solution and 0.3 ml of sediments are obtained. 0.1 ml of water and 0.2 ml of 100% trichloroacetic acid are added to the decanted solution. 1.5 ml of Locke's solution and 0.2 ml of 100% trichloroacetic acid are added to the sediments washed solution. They are cultivated at room temperature for 30 minutes. After cultivation, the mixtures are centrifuged at 3,000 rpm for 15 minutes, respectively. 0.35 ml of each of the former two solutions is sampled. In each sample, 1.65 ml of water, 0.4 ml of 1N NaOH and 0.1 ml of 0.5% OPT (o-phthalic aldehyde) in methanol are added and cultivated at room temperature for 4 minutes. The reaction is stopped by adding 0.2 ml of 2M citric acid. And finally, determine the amount of released histamines in the tested solution by fluorescence method. By the analysis, results of the depression rate of histamines could be calculated.
Locke's solution is instead of each drug in control group, and instead of both drug and 48/80 compound solution in blank group. The histamine releasing rate (A) can be calculated by following equation. […] Where (Hs) is the total amount of histamine in the decanted solution, and (Hr) is the total amount of histamine in the sediment. (A)=[(Hs)/{(Hs)+(Hr)}]×100%. Then the depression rate is: =100−[(A−A in blank group)/(A−A in control group)]×100%.

Test [2] deals with oxazolone-coated mouse ear. Put plainly: Anti-delayed type allergy reaction (oxazolone ear inflammation). Particulars: 1 mg/ear coated, ears weighed after 24 hr; for inhibition in vivo at 1 mg/ear: Mus musculus, topical, read-out: Depression rate (%). In kind it is in vivo. The method, then:
The weights of testing mice are ranging from 20 g to 30 g. They are coated with 0.1 ml of oxazolone alcohol solution (0.5 w/v %) on the hair cleaned part of abdomen. After five days, each of the listed drugs is dissolved in oxazolone acetone solution (0.5 w/v %), and 10 μl each of the solutions is token by micro pipette to coat on both sides of the right ear. After 24 hr, the mouse is killed by ether and punched a circle area of a diameter of 5.5 mm on both right and left ears in corresponding part by a puncher machine (portions of drug coated and the blank). The punched portions are weighed and the inflammation rates calculated. The control group are coated only with the oxazolone acetone solution (0.5 w/v %). The inflammation depressing rates of each drug are calculated by following equation: Inflammation depressing rate(%)=[(weight of drug coated right ear)−(weight of non-drug-coated left ear)]×100%/(weight of non-drug-coated left ear)

Test [3] has as its target xanthine oxidase. The test can be described thus: Inhibition of xanthine oxidase. It counts as biochemical. Particulars: xanthine oxidase 0.01 u/ml, xanthine 5×10^−5M, pH=7.4, UV 295 nm; read-out: IC50 (concentration for depression of 50% activity of oxidase). The procedure:
The production process of peroxide free radical can be tested by Xanthine oxidase substrate in vito (Fridowich, I., J. Biol. Chem., 215, 4053˜4057, 1970). […] The test of inhibiting xanthine oxidase is carried out by the method of H. M. Kalckar (J. Biol. Chem., 167, 429˜443, 1947). The basic principle is xanthine being acted by xanthine oxidase to form uric acid that is quantitative analyzed by photometric method. By the amount of determined uric acid, is calculated the degree of inhibiting effect for the activity of xanthine oxidase.
The testing process is, adding a final concentration of 0.01 u/ml of xanthine oxidase in 1 cm cell of photometric apparatus, and adding 0.05M (pH=7.4) of phosphoric acid buffer or inhabitant The reaction time is counted from the point at adding xanthene's to a final concentration reaching 5×10^−5M. For reducing the error arose by absorption of liquid in photometric analysis, the compound of xanthine oxidase, xanthine and drug are boiled for the reference. UV selected at 295 nm, data are recorded at an interval of 30 seconds for 2 minutes. The unit of activity change of xanthine oxidase is 0.001M/min. Calculate the inhibiting rate for each addition amount of drug. To use drug concentration (M) as a function of inhibiting rate (%), and to trace the data on a log scale paper, the 50% depression rate of the oxidase (IC50) could be determined by regression line method.

A short description of test [4]: pH of saliva after ingesting citric acid. Particulars: 700 mg citric acid ingested. In kind it is in vivo, human. The procedure: Saliva is a kind of humors and, normally, has the pH of around 6.8. For the purpose of reference, to test the pH of the saliva of a person was carried out who had brushed before testing and ingesting 700 mg of citric acid. […]

Structures are written as SMILES. Counter-ions that a name gives are not always drawn.

Chain of xanthine oxidase (P47989 whole entry, species assumed): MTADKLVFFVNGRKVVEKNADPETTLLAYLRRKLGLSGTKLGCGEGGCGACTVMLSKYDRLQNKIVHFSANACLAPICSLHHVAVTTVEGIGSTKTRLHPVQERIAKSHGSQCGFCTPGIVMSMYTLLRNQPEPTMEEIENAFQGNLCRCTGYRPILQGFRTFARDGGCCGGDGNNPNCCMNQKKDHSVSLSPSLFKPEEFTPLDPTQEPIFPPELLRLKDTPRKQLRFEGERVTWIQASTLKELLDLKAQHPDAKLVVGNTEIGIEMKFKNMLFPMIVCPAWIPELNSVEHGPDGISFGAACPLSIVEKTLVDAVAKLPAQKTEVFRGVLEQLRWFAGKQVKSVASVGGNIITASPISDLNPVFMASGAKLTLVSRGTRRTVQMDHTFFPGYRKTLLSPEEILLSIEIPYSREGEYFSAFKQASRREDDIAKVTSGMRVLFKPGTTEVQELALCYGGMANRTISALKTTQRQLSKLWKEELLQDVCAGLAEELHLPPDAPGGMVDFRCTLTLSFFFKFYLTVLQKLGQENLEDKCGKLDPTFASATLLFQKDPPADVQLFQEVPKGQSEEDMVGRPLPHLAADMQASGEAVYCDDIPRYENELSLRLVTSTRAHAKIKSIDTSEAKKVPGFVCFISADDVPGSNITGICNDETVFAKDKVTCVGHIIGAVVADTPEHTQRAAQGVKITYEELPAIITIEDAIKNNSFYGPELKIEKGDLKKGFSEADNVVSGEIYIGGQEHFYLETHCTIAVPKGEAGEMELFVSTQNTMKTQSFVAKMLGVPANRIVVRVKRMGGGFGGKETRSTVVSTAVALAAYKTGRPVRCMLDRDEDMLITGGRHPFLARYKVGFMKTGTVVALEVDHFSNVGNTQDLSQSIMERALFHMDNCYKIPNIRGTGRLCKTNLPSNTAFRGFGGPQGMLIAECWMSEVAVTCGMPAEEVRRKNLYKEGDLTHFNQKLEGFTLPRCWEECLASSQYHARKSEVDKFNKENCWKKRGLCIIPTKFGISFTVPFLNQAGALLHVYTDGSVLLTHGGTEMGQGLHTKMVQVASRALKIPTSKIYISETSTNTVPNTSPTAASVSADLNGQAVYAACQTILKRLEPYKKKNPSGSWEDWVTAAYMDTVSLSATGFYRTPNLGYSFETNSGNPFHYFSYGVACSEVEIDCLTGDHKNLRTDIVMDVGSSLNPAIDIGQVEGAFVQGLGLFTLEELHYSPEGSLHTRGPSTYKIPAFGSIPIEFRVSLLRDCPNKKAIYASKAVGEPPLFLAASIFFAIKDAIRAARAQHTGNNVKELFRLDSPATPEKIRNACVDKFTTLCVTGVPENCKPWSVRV

On to `CC(O)C(=O)O` (stereo not drawn) [Lactic acid], for which, in test [1], the inhibition at 100000 µg/mL was determined as 100% and the “Histamine Releasing rate (%)” value was determined as 8.9%. Besides, the inhibition in vivo at 1 mg/ear in test [2] was determined as 97%.
For `CN(C)CCOC(c1ccccc1)c1ccccc1` [Diphenhydramine hydrochloride, reference compound], in that order: 32.1%, 64.7% and 20%.
As for `O=C(O)/C=C/C(=O)O` [Fumaric acid], in test [1], the inhibition at 100000 µg/mL was found to be 100% and the “Histamine Releasing rate (%)” value is 8.9%. The inhibition in vivo at 1 mg/ear in test [2] amounted to 98%. Moreover, the IC50 in test [3] stood at 101 nM.
With `CC1(C)[C@@H](O[C@H]2O[C@H](C(=O)[O-])[C@@H](O)[C@H](O)[C@H]2O[C@@H]2O[C@H](C(=O)[O-])[C@@H](O)[C@H](O)[C@H]2O)CC[C@]2(C)[C@H]3C(=O)C=C4[C@@H]5C[C@@](C)(C(=O)[O-])CC[C@]5(C)CC[C@@]4(C)[C@]3(C)CC[C@@H]12.[Na+].[Na+].[Na+]` [Trisodium glycyrrhizinate, reference compound], in test [1], the “Depression rate (%)” value was 30.9% and the “Histamine Releasing rate (%)” value was 65.5%.
As to `O=C1O[C@H](CO)[C@@H](O)[C@H](O)[C@H]1O` [gluconolactone], in test [1], the inhibition at 100000 µg/mL is 100% and the “Histamine Releasing rate (%)” value was 8.9%. In addition, the inhibition in vivo at 1 mg/ear in test [2] worked out at 97%.
For the molecule `CCCCCCC(O)C(=O)O` (stereo not drawn) [α-hydroxy octanoic acid], in test [1], the inhibition at 100000 µg/mL worked out at 100% and the “Histamine Releasing rate (%)” value is 9.0%. Also, the inhibition in vivo at 1 mg/ear in test [2] was 94%.
Turning to `O=C(O)C(O)C(O)C(=O)O` (stereo not drawn) [Tartaric acid], in test [1], the inhibition at 100000 µg/mL is 100% and the “Histamine Releasing rate (%)” value came out at 8.9%. Further, the inhibition in vivo at 1 mg/ear in test [2] came to 97%. Moreover, the IC50 in test [3] worked out at 102 nM.
As for `Nc1nc2ncc(CNc3ccc(C(=O)N[C@@H](CCC(=O)O)C(=O)O)cc3)nc2c(=O)[nH]1` [Folic acid, reference compound], the IC50 in test [3] turned out to be 662 nM.
For the molecule `O=C(O)CO` [α-hydroxy ethanoic acid], in test [1], the “Depression rate (%)” value is on record as 100% and the “Histamine Releasing rate (%)” value is listed as 9.0%. Besides, the “Depression rate (%)” value in test [2] was determined as 98%.
For `O=C(O)CC(O)C(=O)O` (stereo not drawn) [Malic acid], in test [1], the inhibition at 100000 µg/mL amounted to 100% and the “Histamine Releasing rate (%)” value is 9.0%. For the same molecule, the inhibition in vivo at 1 mg/ear in test [2] was found to be 96%. For the same molecule, the IC50 in test [3] stood at 112 nM.
As for `O=C(O)CC(O)(CC(=O)O)C(=O)O` [Citric acid], the “pH value of saliva” value is 6.8 in test [4] (testing time 0 minute); 6.45 in test [4] (testing time 20 minute); 6.26 in test [4] (testing time 60 minute); 6.6 in test [4] (testing time 90 minute); 6.8 in test [4] (testing time 120 minute). The inhibition at 100000 µg/mL in test [1] was 100%. Moreover, the “Histamine Releasing rate (%)” value in test [1] is on record as 8.7%. The inhibition in vivo at 1 mg/ear in test [2] was determined as 100%. The IC50 in test [3] was determined as 100 nM.

(Values after patent US20060251703A1, “Composition comprising an edible acid or its acidic salt and the use thereof” (priority 2003, published 2006).)
